Species on record: Rattus norvegicus
Experiment: DrugMatrix - Regimen: Daily Repeat
Assay type: toxicity, organism-based, Sprague-Dawley
Design: regimen Daily Repeat, gender Male, age 6-8 weeks
Details: in vivo, po, route oral GAVAGE, vehicle 100 % SALINE; for ABSOLUTE BASOPHIL / ABSOLUTE EOSINOPHIL / ABSOLUTE LYMPHOCYTE / ABSOLUTE MONOCYTE / ABSOLUTE SEGMENTED NEUTROPHIL / BASOPHIL / EOSINOPHIL / ERYTHROCYTE COUNT / HEMATOCRIT / HEMOGLOBIN / LEUKOCYTE COUNT / LYMPHOCYTE / MEAN CORPUSCULAR HEMOGLOBIN / MEAN CORPUSCULAR HEMOGLOBIN CONCENTRATION / MEAN CORPUSCULAR VOLUME / MONOCYTE / NEUTROPHIL / NUCLEATED RED BLOOD CELLS / PLATELET COUNT: tissue Blood; for ALANINE AMINOTRANSFERASE / ALBUMIN / ALKALINE PHOSPHATASE / ASPARTATE AMINOTRANSFERASE / BLOOD UREA NITROGEN / CARBON DIOXIDE / CHLORIDE / CHOLESTEROL / CREATINE PHOSPHOKINASE / CREATININE / GLUCOSE / LACTATE DEHYDROGENASE / LIPASE / PHOSPHORUS / POTASSIUM / SODIUM / TOTAL BILIRUBIN / TOTAL PROTEIN / URIC ACID: tissue Plasma
[1] = 3000 mg/kg, […], dose level Low, time 7 day
[2] = 6000 mg/kg, 72 h, dose level High, time 3 day
[3] = 6000 mg/kg, […], dose level High, time 7 day

`CCO` [ALCOHOL] was tested, and the “ABSOLUTE BASOPHIL” value [1] was 0 CELLS/uL, the “ABSOLUTE EOSINOPHIL” value [1] was 0 CELLS/uL and the “ABSOLUTE LYMPHOCYTE” value [1] was 9669 CELLS/uL. For the same molecule, the “ABSOLUTE MONOCYTE” value [1] was 317.33 CELLS/uL, the “ABSOLUTE SEGMENTED NEUTROPHIL” value [1] was 1063.67 CELLS/uL and the BASOPHIL [1] was 0%. For the same molecule, the EOSINOPHIL [1] was 0%, the “ERYTHROCYTE COUNT” value [1] was 5.39 x10E6/uL and the HEMATOCRIT [1] was 34.88%. For the same molecule, the HEMOGLOBIN [1] was 13.85 G/DL, the “LEUKOCYTE COUNT” value [1] was 11.05 x10E3/uL and the LYMPHOCYTE [1] was 87%. For the same molecule, the “MEAN CORPUSCULAR HEMOGLOBIN” value [1] was 25.73 pg, the “MEAN CORPUSCULAR HEMOGLOBIN CONCENTRATION” value [1] was 39.75 G/DL and the “MEAN CORPUSCULAR VOLUME” value [1] was 64.77 fL. For the same molecule, the MONOCYTE [1] was 2.83%, the NEUTROPHIL [1] was 10.17% and the “NUCLEATED RED BLOOD CELLS” value [1] was 0 /100WBC. The “PLATELET COUNT” value [1] was 1110 x10E3/uL, the “ALANINE AMINOTRANSFERASE” value [1] was 51.67 u/L and the ALBUMIN [1] was 4.5 G/DL. For the same molecule, the “ALKALINE PHOSPHATASE” value [1] was 281.33 u/L, the “ASPARTATE AMINOTRANSFERASE” value [1] was 82.67 u/L and the “BLOOD UREA NITROGEN” value [1] was 15 mg/dL. For the same molecule, the “CARBON DIOXIDE” value [1] was 31 mmol/L, the CHLORIDE [1] was 98.33 MEQ/L and the CHOLESTEROL [1] was 69.83 mg/dL. The “CREATINE PHOSPHOKINASE” value [1] was 250 u/L, the CREATININE [1] was 0.19 mg/dL and the GLUCOSE [1] was 135.67 mg/dL. For the same molecule, the “LACTATE DEHYDROGENASE” value [1] was 123.5 u/L, the LIPASE [1] was 10.17 u/L and the PHOSPHORUS [1] was 10.85 mg/dL. For the same molecule, the POTASSIUM [1] was 5.95 MEQ/L, the SODIUM [1] was 143.15 MEQ/L and the “TOTAL BILIRUBIN” value [1] was 0.22 mg/dL. The “TOTAL PROTEIN” value [1] was 5.93 G/DL, the “URIC ACID” value [1] was 0.68 mg/dL and the “ABSOLUTE BASOPHIL” value [2] was 0 CELLS/uL. For the same molecule, the “ABSOLUTE EOSINOPHIL” value [2] was 0 CELLS/uL, the “ABSOLUTE LYMPHOCYTE” value [2] was 11300.5 CELLS/uL and the “ABSOLUTE MONOCYTE” value [2] was 91.33 CELLS/uL. For the same molecule, the “ABSOLUTE SEGMENTED NEUTROPHIL” value [2] was 1124.83 CELLS/uL, the BASOPHIL [2] was 0% and the EOSINOPHIL [2] was 0%. For the same molecule, the “ERYTHROCYTE COUNT” value [2] was 5.6 x10E6/uL, the HEMATOCRIT [2] was 35.9% and the HEMOGLOBIN [2] was 13 G/DL. For the same molecule, the “LEUKOCYTE COUNT” value [2] was 12.52 x10E3/uL, the LYMPHOCYTE [2] was 90.17% and the “MEAN CORPUSCULAR HEMOGLOBIN” value [2] was 23.25 pg. For the same molecule, the “MEAN CORPUSCULAR HEMOGLOBIN CONCENTRATION” value [2] was 36.23 G/DL, the “MEAN CORPUSCULAR VOLUME” value [2] was 64.17 fL and the MONOCYTE [2] was 0.67%. The NEUTROPHIL [2] was 9.17%, the “NUCLEATED RED BLOOD CELLS” value [2] was 0 /100WBC and the “PLATELET COUNT” value [2] was 1089.17 x10E3/uL. The “ALANINE AMINOTRANSFERASE” value [2] was 60.5 u/L, the ALBUMIN [2] was 4.18 G/DL and the “ALKALINE PHOSPHATASE” value [2] was 281 u/L. For the same molecule, the “ASPARTATE AMINOTRANSFERASE” value [2] was 86.33 u/L, the “BLOOD UREA NITROGEN” value [2] was 12.33 mg/dL and the “CARBON DIOXIDE” value [2] was 28.33 mmol/L. The CHLORIDE [2] was 101.33 MEQ/L, the CHOLESTEROL [2] was 80.33 mg/dL and the “CREATINE PHOSPHOKINASE” value [2] was 216.67 u/L. For the same molecule, the CREATININE [2] was 0.46 mg/dL, the GLUCOSE [2] was 142.83 mg/dL and the “LACTATE DEHYDROGENASE” value [2] was 151.83 u/L. For the same molecule, the LIPASE [2] was 9.83 u/L, the PHOSPHORUS [2] was 11.08 mg/dL and the POTASSIUM [2] was 5.96 MEQ/L. For the same molecule, the SODIUM [2] was 146.62 MEQ/L, the “TOTAL BILIRUBIN” value [2] was 0.17 mg/dL and the “TOTAL PROTEIN” value [2] was 6.02 G/DL. The “URIC ACID” value [2] was 0.97 mg/dL, the “ABSOLUTE BASOPHIL” value [3] was 0 CELLS/uL and the “ABSOLUTE EOSINOPHIL” value [3] was 38 CELLS/uL. For the same molecule, the “ABSOLUTE LYMPHOCYTE” value [3] was 9373.67 CELLS/uL, the “ABSOLUTE MONOCYTE” value [3] was 256.5 CELLS/uL and the “ABSOLUTE SEGMENTED NEUTROPHIL” value [3] was 1531.83 CELLS/uL. The BASOPHIL [3] was 0%, the EOSINOPHIL [3] was 0.33% and the “ERYTHROCYTE COUNT” value [3] was 5.4 x10E6/uL. For the same molecule, the HEMATOCRIT [3] was 33.48%, the HEMOGLOBIN [3] was 13.42 G/DL and the “LEUKOCYTE COUNT” value [3] was 11.2 x10E3/uL. For the same molecule, the LYMPHOCYTE [3] was 84.5%, the “MEAN CORPUSCULAR HEMOGLOBIN” value [3] was 24.92 pg and the “MEAN CORPUSCULAR HEMOGLOBIN CONCENTRATION” value [3] was 40.07 G/DL. For the same molecule, the “MEAN CORPUSCULAR VOLUME” value [3] was 62.18 fL, the MONOCYTE [3] was 2.33% and the NEUTROPHIL [3] was 12.83%. For the same molecule, the “NUCLEATED RED BLOOD CELLS” value [3] was 0 /100WBC, the “PLATELET COUNT” value [3] was 1292.83 x10E3/uL and the “ALANINE AMINOTRANSFERASE” value [3] was 65.5 u/L. The ALBUMIN [3] was 4.38 G/DL, the “ALKALINE PHOSPHATASE” value [3] was 202.33 u/L and the “ASPARTATE AMINOTRANSFERASE” value [3] was 86.17 u/L. The “BLOOD UREA NITROGEN” value [3] was 13 mg/dL, the “CARBON DIOXIDE” value [3] was 29.33 mmol/L and the CHLORIDE [3] was 100.17 MEQ/L. For the same molecule, the CHOLESTEROL [3] was 67.17 mg/dL, the “CREATINE PHOSPHOKINASE” value [3] was 206 u/L and the CREATININE [3] was 0.19 mg/dL. For the same molecule, the GLUCOSE [3] was 138.83 mg/dL, the “LACTATE DEHYDROGENASE” value [3] was 109 u/L and the LIPASE [3] was 10 u/L. For the same molecule, the PHOSPHORUS [3] was 10.48 mg/dL, the POTASSIUM [3] was 5.88 MEQ/L and the SODIUM [3] was 144.13 MEQ/L. For the same molecule, the “TOTAL BILIRUBIN” value [3] was 0.18 mg/dL, the “TOTAL PROTEIN” value [3] was 5.83 G/DL and the “URIC ACID” value [3] was 0.88 mg/dL.
